Patent publication US10111866B2, “Compounds as rearranged during transfection (RET) inhibitors” (GLAXOSMITHKLINE INTELLECTUAL PROPERTY DEVELOPMENT LIMITED, priority 2015, dated 2018)

Key:
TT cells = assay: RET kinase cell-based proliferation assay (TT cells, CellTiter-Glo); settings: Homo sapiens, 192 h, eight days
Description: RET Kinase Cell-Based Proliferation Assay
The potency of the compounds of the invention were tested for its ability to inhibit cell proliferation and cell viability. TT cells (ATCC CRL-1803), a medullary thyroid cancer cell line with constitutively activated RET kinase, were maintained in 150 cm^2 dishes in F12 Kaighn's medium, 10% fetal bovine serum, 1× Glutamax, 1× non-essential amino acids, 1× Pen/Strep antibiotics at 37° C. in 5% carbon dioxide. 6.0E3 TT cells/well in 50 μL of media were added to a 96-well cell culture plate and allowed to adhere overnight. 50 μL of serially diluted RET inhibitor compounds were added to 96-well plate containing cultured TT cells and incubated at 37° C. in 5% carbon dioxide for eight days. 50 μL of CellTiter-Glo (Promega #G-7573) was added, contents mixed for 1 minute on shaker followed by 10 minutes in the dark at 23° C. and the luminescence read by EnVision (PerkinElmer). IC50s were fitted using GraphPad Prism to a sigmoidal dose response.

Human RET kinase = Human RET kinase (Homo sapiens (Human), UniProt P07949); assay: RET kinase enzymatic assay; type: biochemical; settings: GST-RET cytoplasmic domain, HTRF readout
Description: RET Kinase Enzymatic Assay
Human RET kinase cytoplasmic domain (amino acids 658-1114 of accession number NP_000314.1) was expressed as an N-terminal GST-fusion protein using a baculovirus expression system. GST-RET was purified using glutathione sepharose chromatography. The RET kinase enzymatic assay was performed in a total volume of 10 uL with increasing concentrations of RET kinase inhibitor as a singlet in a 384 well format as follows: RET inhibitor compound plates are prepared by adding 100 nL of RET inhibitor at different concentrations to a 384-well plate. 5 μL/well of a 2× enzyme mix (50 mM HEPES (4-(2-hydroxyethyl)-1-piperazineethanesulfonic acid); 1 mM CHAPS (3-[(3-cholamidopropyl)dimethylammonio]-1-propane sulfonate); 0.1 mg/mL BSA (bovine serum albumin); 1 mM DTT (dithiothreitol); 0.2 nM RET kinase) was added to the 384-well plate and incubated for 30 minutes at 23° C. […] 10 μL/well of 2× stop/detection mix (50 mM HEPES; 0.1% BSA; 800 mM Potassium Fluoride; 50 mM EDTA (Ethylenediaminetetraacetic acid); 200× dilution of Europium Cryptate labeled anti-phosphotyrosine antibody; 62.5 nM Streptavidin-XL665) incubated for 1 hour at 23° C. and read on a Homogenous Time-Resolved Fluorescence reader. […]

Chain of Human RET kinase (P07949 658-1114): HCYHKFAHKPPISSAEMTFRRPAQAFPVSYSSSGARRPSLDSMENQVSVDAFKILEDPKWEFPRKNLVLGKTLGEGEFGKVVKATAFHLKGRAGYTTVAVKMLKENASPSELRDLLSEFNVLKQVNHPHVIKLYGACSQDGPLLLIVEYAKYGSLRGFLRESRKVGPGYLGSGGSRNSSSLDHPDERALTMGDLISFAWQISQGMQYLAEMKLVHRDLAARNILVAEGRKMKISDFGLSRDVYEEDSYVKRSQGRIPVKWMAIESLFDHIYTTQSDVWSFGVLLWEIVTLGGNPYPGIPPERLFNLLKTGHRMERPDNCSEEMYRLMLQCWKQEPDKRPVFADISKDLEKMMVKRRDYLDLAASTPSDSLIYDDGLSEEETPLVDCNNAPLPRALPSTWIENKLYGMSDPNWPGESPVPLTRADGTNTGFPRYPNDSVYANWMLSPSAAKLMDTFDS

SMILES: CCOc1cc(=O)[nH]cc1-c1ccc(CC(=O)Nc2cc(C(=O)NCCN(C)C)cc(C(F)(F)F)c2)c(F)c1 [Example 1, N-(2-(dimethylamino)ethyl)-3-(2-(4-(4-ethoxy-6-oxo-1,6-dihydropyridin-3-yl)-2-fluorophenyl)acetamido)-5-(trifluoromethyl)benzamide]
- IC50 (TT cells): 10 to 100 nM
- IC50 (Human RET kinase): ≤ 10 nM

SMILES: CCOc1cc(=O)[nH]cc1-c1ccc(CC(=O)Nc2cc(OCCN(C)C)cc(C(F)(F)F)c2)c(F)c1 [Example 2, N-(3-(2-(dimethylamino)ethoxy)-5-(trifluoromethyl)phenyl)-2-(4-(4-ethoxy-6-oxo-1,6-dihydropyridin-3-yl)-2-fluorophenyl)acetamide]
- IC50 (TT cells): 10 to 100 nM
- IC50 (Human RET kinase): ≤ 10 nM
